{"source": "patent US9518038B2", "about": "“Condensation product of theanine derivative and carboxylic acid coumarin derivative, its intermediate, preparation method and use thereof” (SHANDONG YINGDONG YINGHAO BIOTECHNOLOGY, INC., priority 2012, dated 2016)", "format_in_all_cases": "cell-based", "key": {"[1]": {"test_system": "p21", "test": "Western Blotting, increase of p21 level", "settings": "liver cancer cells, Lewis lung cancer cells and other cancer cell lines and tumor tissue protein lysates, 48 h treatment, read-out: Effective concentration to increase p21 by 50%", "excerpt": "(§1) Antibodies: primary antibodies of VEGFR, EGFR, c-Met, K-Ras, H-Ras, Akt, NF-κB, Cyclin D1, ER-alpha, Dvl-1, Dvl-2, Dvl-3, MMP-9, MMP2, β-catenin, Bcl-2, Bax, p53, p21, E-cadherin and Caspase3 protein, purchased from American Cell Signaling Technology Company and Santa Cruz Technology Company; and H3 acetylation, H4 acetylation and HDAC (HDAC3, HDAC4 and the like) Antibody Sample Kits, purchased from Cell Signaling Technology Company of the U.S.\n(§2) (3) polyacrylamide gel electrophoresis (SDS-PAGE): an equal amount of protein lysate sample was used to separate protein, film transfer, and blocking, treated with appropriate primary antibodies and secondary antibodies in sequence, and the film was washed, then the color was developed with ECL kit, and a blot protein band was detected by exposure of an X-ray film; and a Gel-Pro Analyzer was used for quantitative analysis of gray degree, optical density value of the control group and the drug treatment group in various concentration were respectively compared with that of internal reference, the obtained ratios were respectively compared with the control group, and the protein expression level was semi-quantified."}, "[2]": {"test_system": "E-cadherin", "test": "Western Blotting, increase of E-cadherin level", "settings": "liver cancer cells, Lewis lung cancer cells and other cancer cell lines and tumor tissue protein lysates, 48 h treatment, read-out: Effective concentration to increase E-cadherin by 50%", "excerpt": "as §1, §2"}, "[3]": {"test_system": "p53", "test": "Western Blotting, increase of p53 level", "settings": "liver cancer cells, Lewis lung cancer cells and other cancer cell lines and tumor tissue protein lysates, 48 h treatment, read-out: Effective concentration to increase p53 by 50%", "excerpt": "as §1, §2"}, "[4]": {"test_system": "human breast cancer cells MDA-MB-231", "test": "MTT growth inhibition, MDA-MB-231 cells", "settings": "72 h after treatment, read-out: Drug concentration (IC50) at which 50% cancer cells survived", "excerpt": "(§3) Cell lines and cell culture: human lung cancer cells A549 and H460, human breast cancer cells MCF-7 and MDA-MB-231, human gastric cancer cells BGC-823, human prostate cancer cells PC-3, human chronic leukemia cells K562, human lymphoma cells U937, human liver cancer cells SMMC7721 and HepG2, human colon cancer cells HT29, human pancreatic cancer cells PANC-1 and BxPC3, human cervical cancer Hela cell lines, human brain tumor cells Daoy, human neuroma cells D54 and human oral epidermoid cancer cells KBV200 line with strong drug resistance, mouse melanoma cells B16, and highly metastatic Lewis lung cancer cell lines were purchased from American Type Culture Collection of the U.S. These cells were cultured with DMEM and RPMI-1640 culture solutions separately.\n(§4) The procedure was as follows:\n(§5) (1) 0.25% trypsin was used to digest cancer cells in a logarithmic growth phase to prepare a single-cell suspension, the concentration of cells was adjusted to 5×10^4/mL, and the adjusted suspension was inoculated into a 96-well culture plate with 100 μl per well;\n(§6) (2) The culture plate was transferred into a 37° C. incubator with a saturated humidity and 5% of CO2 and cultured for 24 h; the compounds and the intermediates thereof obtained in embodiments 1-7 and the compound as represented by formula (IIIa) or the positive control anti-cancer drug with the concentration of 1-1000 μM/L were added to enable the final concentration to be 0.1-1500 μM/L. Control wells (only added with 200 μl of cell suspension) and drug-free blank control wells (containing the solvent of 0.01% DMSO) were set, each group included 8 wells, and the plate was placed into the 37° C. incubator with saturated humidity and 5% of CO2 for culturing;\n(§7) (3) The 96-well plate was taken out at 48 h and 72 h after dosing, the original culture medium was carefully removed by suction, 100 μl of serum-free DMEM culture medium and 10 μl of MTT (5 mg/mL) solution were added in each well. The plate was continuously cultured for another 4 h and then the culture was terminated;\n(§8) (4) The supernatant in the wells was carefully removed by suction, each well was added with 150 μl of DMSO and shaked at room temperature for 10-15 min to fully dissolve crystals.\n(§9) (5) Colorimetric analysis: the wavelength was selected as 570 nm, the light absorbance (A value) of each well was determined on the microplate reader and the results were recorded; the experiment was repeated for three times;\n(§10) (6) the experimental results were calculated according to the following formula: relative survival rate=(A value of each experimental group/A value of cell control group)×100%\n(§11) Calculation of median-effect concentration (IC50, namely the drug concentration at which the inhibition rate is 50%, also known as half inhibitory concentration):\n(§12) IC50 of the detected component was calculated by using a regression equation."}, "[5]": {"test_system": "nucleoprotein factor NF-κB (p65)-DNA binding activity", "test": "NF-κB (p65)-DNA binding activity (EMSA)", "settings": "EMSA, nuclear protein extracts, 48 h, read-out: Effective concentration for 50% inhibition of binding of nucleoprotein factor NF-kB (p65) and DNA", "excerpt": "The in-vitro experiment of the inhibitory effect against the NF-κB(p65)-DNA binding activity was applied with the chemiluminescent EMSA kit of Pierce Biotechnology Company of the U.S., the experimental method was strictly operated according to the description of the kit and the specific procedure were as follows:\n(1) Preparation of EMSA gel\nThe cells treated by the drugs were extracted by the nucleoprotein extract solution (provided by Beyotime Biotechnology of Institute) to obtain the nucleoprotein extracts, and 10 μg/pipe of the nucleoprotein extracts were respectively used for sample reaction and electrophoresis detection and analysis shown in the following table.\n(2) Pre-electrophoresis: the gel was fixed in an electrophoresis tank, which was filled with a 0.5×TBE electrophoresis buffer solution, and electrophoresed under 10V/cm for 90 min. The probe binding reaction was as follows:\nThe components were added in sequence into the EP pipe according to the above table, uniformly mixed and stood at room temperature for 15 min to eliminate possible non-specific binding of probe and protein. 1 μl of biotin-labeled probe NF-κB was respectively added and stood at room temperature for 20 min.\n(4) Film transfer: the process of transferring the nucleoprotein factors and the binding probe on the EMSA gel to the nylon film was electrically transferred under 380 mA in ice bath for 40 min.\n(5) Ultraviolet cross-linking: the nylon film was placed under a 254 nm ultraviolet lamp and irradiated for 15 min.\n(6) Detection of the biotin-labeled probe by chemiluminescence: the cross-linked nylon film was blocked with the blocking solution, a treated film was subjected to X-ray exposure, developing, and fixation according to the requirements of the kit, and the results were analyzed."}, "[6]": {"test_system": "human liver cancer cells SMMC7721", "test": "MTT growth inhibition, SMMC7721 cells", "settings": "SMMC-7721, S-7721 (SMMC7721), 72 h after treatment, read-out: Drug concentration (IC50) at which 50% cancer cells survived", "excerpt": "as §3, §4, §5, §6, §7, §8, §9, §10, §11, §12"}, "[7]": {"test_system": "human liver cancer cells HepG2", "test": "MTT growth inhibition, HepG2 cells", "settings": "72 h after treatment, read-out: Drug concentration (IC50) at which 50% cancer cells survived", "excerpt": "as §3, §4, §5, §6, §7, §8, §9, §10, §11, §12"}, "[8]": {"test_system": "Caspase3", "test": "Western Blotting, increase of Caspase3 level", "settings": "liver cancer cells, Lewis lung cancer cells and other cancer cell lines and tumor tissue protein lysates, 48 h treatment, read-out: Effective concentration to increase Caspase-3 by 50%", "excerpt": "as §1, §2"}, "[9]": {"test_system": "human lung cancer cells A549", "test": "MTT growth inhibition, A549 cells", "settings": "72 h after treatment, read-out: Drug concentration (IC50) at which 50% cancer cells survived", "excerpt": "as §3, §4, §5, §6, §7, §8, §9, §10, §11, §12"}}, "note": "Where two headings read alike, the source gives them in different places."}
{"smiles": "CC[C@]1(O)C[C@H]2CN(CCc3c([nH]c4ccccc34)[C@@](C(=O)OC)(c3cc4c(cc3OC)N(C=O)[C@H]3[C@@](O)(C(=O)OC)[C@H](OC(C)=O)[C@]5(CC)C=CCN6CC[C@]43[C@@H]65)C2)C1", "note": "[Vincristine, reference compound]", "values": [{"measurement": "EC50", "setting": "[1]", "value": "> 70", "unit": "µM"}, {"measurement": "EC50", "setting": "[2]", "value": "> 70", "unit": "µM"}, {"measurement": "EC50", "setting": "[3]", "value": "> 70", "unit": "µM"}, {"measurement": "IC50", "setting": "[4]", "value": 130, "unit": "µM"}, {"measurement": "IC50", "setting": "[5]; A549 cells", "value": "> 70", "unit": "µM"}, {"measurement": "IC50", "setting": "[5]; Hela cells", "value": "> 70", "unit": "µM"}, {"measurement": "IC50", "setting": "[5]; MCF7 cells", "value": "> 70", "unit": "µM"}, {"measurement": "IC50", "setting": "[5]; MDA-MB231 cells", "value": "> 70", "unit": "µM"}, {"measurement": "IC50", "setting": "[5]; PANC-1 cells", "value": "> 70", "unit": "µM"}, {"measurement": "IC50", "setting": "[5]; SMMC7721 cells", "value": "> 70", "unit": "µM"}, {"measurement": "IC50", "setting": "[6]", "value": "78 ± 30", "unit": "µM"}, {"measurement": "IC50", "setting": "[7]", "value": 37, "unit": "µM"}, {"measurement": "EC50", "setting": "[8]", "value": "> 70", "unit": "µM"}, {"measurement": "IC50", "setting": "[9]", "value": 220, "unit": "µM"}]}
